Measured values taken from ChEMBL document CHEMBL3600372, “Scapairrins A-Q, Labdane-Type Diterpenoids from the Chinese Liverwort Scapania irrigua and Their Cytotoxic Activity” (J Nat Prod, 2015).

Experiments:
[1] = system: HeLa; experiment: Cytotoxicity against human HeLa cells after 24 hrs by MTT assay; assay type: functional, cell-based
[2] = system: HUVEC; experiment: Cytotoxicity against human HUVEC after 24 hrs by MTT assay; assay type: cell-based
[3] = system: MDA-MB-231; experiment: Cytotoxicity against human MDA-MB-231 cells after 24 hrs by MTT assay; assay type: functional, cell-based; conditions: MDA-MB-231, 24 h
[4] = system: A2780; experiment: Cytotoxicity against human A2780 cells after 24 hrs by MTT assay; assay type: functional, cell-based; conditions: A2780, 24 h
[5] = system: A549; experiment: Cytotoxicity against human A549 cells after 24 hrs by MTT assay; assay type: functional, cell-based; conditions: A549, 24 h
[6] = system: HT-29; experiment: Cytotoxicity against human HT-29 cells after 24 hrs by MTT assay; assay type: functional, cell-based; conditions: HT-29, 24 h

| SMILES | IC50 [1] [µM] | IC50 [2] [µM] | IC50 [3] [µM] | IC50 [4] [µM] | IC50 [5] [µM] | IC50 [6] [µM] |
| --- | --- | --- | --- | --- | --- | --- |
| C=C([C@H](C)O)[C@@H]1C[C@H]2[C@@](C)(CC[C@@]3(O)C(C)(C)CCC[C@]23C)O1 | > 10 | > 10 | > 10 | > 10 | > 10 | > 10 |
| C=C([C@@H]1C[C@H]2[C@@](C)(CC[C@@]3(O)C(C)(C)CCC[C@]23C)O1)[C@@H](C)O | > 10 | > 10 | > 10 | > 10 | > 10 | > 10 |
| C=C([C@H](C)O)[C@@H]1C[C@H]2[C@@](C)(CC[C@@]3(O)C(C)(C)CCC(=O)[C@]23C)O1 | > 10 | > 10 | > 10 | > 10 | > 10 | > 10 |
| C=C([C@@H]1C[C@H]2[C@@](C)(CC[C@@]3(O)C(C)(C)CCC(=O)[C@]23C)O1)[C@@H](C)O | > 10 | > 10 | > 10 | > 10 | > 10 | > 10 |
| C=C([C@H](C)O)[C@@H]1C[C@@H]2[C@@]3(C)[C@@H](O)CCC(C)(C)[C@]3(O)CC[C@@]2(C)O1 | > 10 | > 10 | > 10 | > 10 | > 10 | > 10 |
| C=C([C@@H]1C[C@@H]2[C@@]3(C)[C@@H](O)CCC(C)(C)[C@]3(O)CC[C@@]2(C)O1)[C@@H](C)O | > 10 | > 10 | > 10 | > 10 | > 10 | > 10 |
| C=C(C(C)=O)[C@@H]1C[C@@H]2[C@@]3(C)[C@@H](O)CCC(C)(C)[C@]3(O)CC[C@@]2(C)O1 | 6.6 | > 10 | 4.1 | 5.3 | > 10 | 5.8 |
| C=C(C(C)=O)[C@H]1C[C@@H]2[C@@]3(C)[C@@H](O)CCC(C)(C)[C@]3(O)CC[C@@]2(C)O1 | 5.5 | > 10 | 5.4 | 4.4 | > 10 | 7 |
| C=C(C(C)=O)[C@@H]1C[C@H]2[C@@](C)(CC[C@@]3(O)C(C)(C)CCC(=O)[C@]23C)O1 | 8.7 | > 10 | 5 | 7.8 | > 10 | 6.8 |
| C=C(C(C)=O)[C@@H]1C[C@H]2[C@@](C)(CC[C@@]3(O)C(C)(C)CCC[C@]23C)O1 | 8.3 | 3 | 4.2 | 8.6 | > 10 | 5.2 |
| C/C=C(\C)[C@@H]1C[C@H]2[C@@](C)(CC[C@@]3(O)C(C)(C)CCC[C@]23C)O1 | > 10 | > 10 | > 10 | > 10 | > 10 | > 10 |
| C/C=C(\C)[C@@H]1C[C@H]2[C@@](C)(CC[C@@]3(O)C(C)(C)CCC(=O)[C@]23C)O1 | > 10 | > 10 | > 10 | > 10 | > 10 | > 10 |
| C[C@H]1O[C@]1(C)C(=O)C[C@@H]1[C@@]2(C)[C@@H](O)CCC(C)(C)[C@]2(O)CC[C@@]1(C)O | > 10 | > 10 | > 10 | > 10 | > 10 | > 10 |
| C[C@@H]1O[C@@]1(C)C(=O)C[C@@H]1[C@@]2(C)[C@@H](O)CCC(C)(C)[C@]2(O)CC[C@@]1(C)O | > 10 | > 10 | > 10 | > 10 | > 10 | > 10 |
| C[C@@H]1O[C@@]1(C)C(=O)C[C@H]1[C@](C)(O)CC[C@@]2(O)C(C)(C)CCC[C@]12C | > 10 | > 10 | > 10 | > 10 | > 10 | > 10 |
| C[C@H]1O[C@]1(C)C(=O)C[C@H]1[C@](C)(O)CC[C@@]2(O)C(C)(C)CCC[C@]12C | > 10 | > 10 | > 10 | > 10 | > 10 | > 10 |
| CC1(C)CCC[C@]2(C)C3=CC(=O)O[C@]3(C)CC[C@@]12O | > 10 | > 10 | > 10 | > 10 | > 10 | > 10 |
| C/C=C(\C)C(=O)C[C@]1(O)[C@@]2(C)CCCC(C)(C)[C@]2(O)CC[C@@]1(C)O | > 10 | > 10 | > 10 | > 10 | > 10 | > 10 |
| C/C=C(\C)C(=O)C[C@@H]1[C@@]2(C)[C@@H](O)CCC(C)(C)[C@]2(O)CC[C@@]1(C)O | > 10 | > 10 | > 10 | > 10 | > 10 | > 10 |
| C/C=C(\C)C(=O)C[C@H]1[C@](C)(O)CC[C@@]2(O)C(C)(C)CCC[C@]12C | > 10 | > 10 | > 10 | > 10 | > 10 | > 10 |
| COc1cccc2c1C(=O)c1c(O)c3c(c(O)c1C2=O)C[C@@](O)(C(=O)CO)C[C@@H]3O[C@H]1C[C@H](N)[C@H](O)[C@H](C)O1 [DOXORUBICIN] | 5.2 | 6.3 | 0.6 | – | – | 1.7 |
